{"source": "patent US20230203485A1", "about": "“METHODS FOR MODULATING MHC-I EXPRESSION AND IMMUNOTHERAPY USES THEREOF” (Dana-Farber Cancer Institute, Inc., priority 2020, published 2023)", "key": {"[1]": {"tested_on": "HLA class I bound peptides of MCC cell lines", "experiment": "HLA class I immunoprecipitation and LC-MS/MS immunopeptidome of MCC tumors and cell lines +/- IFNγ", "assay_type": "cell-based, human", "from_the_text": "CL=cell line (left). Correlation heatmap of peptide sequences between MCC lines at baseline and after IFN-γ treatment in motif space (right).\nHLA molecules are immunoprecipitated from tumor and cell line material, peptides are eluted from HLA complex and analyzed by LC-MS/MS. After database searching, peptides are assigned to their most likely allele by prediction in HLAthena.\nUp to 40 million MCC cells were immunoprecipitated. Briefly, MCC cells were harvested and lysed in ice-cold lysis buffer containing […] (pH 8.0), 1 mM EDTA (pH 8.0), 0.1M sodium chloride, Triton X-100, 0.06M octyl 3-d-glucopyranoside, 100 U/mL DNAse I, 1 mM phenylmethanesulfonyl fluoride (all from Sigma Aldrich), protease inhibitor cocktail (Roche Diagnostics, Indianapolis, Ind.). Cell lysates were centrifuged at 12,700 rpm at 4° C. for 22 min. […] Peptides of up to three IPs were combined, acid eluted, and analyzed using LC/MS/MS as described previously (Abelin, Keskin Immunity). […] Peptides were eluted in a 6-30% gradient (EasyLC 1000 or 1200, ThermoFisher Scientific) and analyzed on a QExactive Plus or Fusion Lumos (ThermoFisher Scientific). […]\nFor detection of the large T antigen peptide, 3 Ips of a 367 Cell line treated with IFNγ were pooled, acid eluted, fractionated using stage tip basic reverse phase separation and fractions were analyzed on a Fusion Lumos equipped with a FAIMSpro interface (Klaeger et al., in preparation).\nMass spectra were interpreted using Spectrum Mill software package v7.1 pre-Release (Agilent Technologies, Santa Clara, Calif.). […] MS/MS spectra were searched against a protein sequence database that contained 98,298 entries, including all UCSC Genome Browser genes with hg19 annotation of the genome and its protein coding transcripts (63,691 entries), common human virus sequences (30,181 entries), recurrently mutated proteins observed in tumors from 26 tissues (4,167 entries), 264 common laboratory contaminants as well as protein sequences containing somatic mutations detected in MCC cell lines. […]"}, "surface HLA-I": {"tested_on": "surface HLA-I", "experiment": "Interferon treatment of MCC lines, surface HLA-I by flow cytometry", "assay_type": "cell-based, human", "experimental": "Cells were dissociated with Versene and incubated with 5 μL Human TruStain FcX (Fc Receptor Blocking Solution; Biolegend #422302) per million cells in 100 μL at room temperature for 10 min. Fluorophore-conjugated antibodies or respective isotype controls were added and incubated for another 30 min at 4° C. Cells were then washed once with PBS and resuspended in PBS or 4% paraformaldehyde and analyzed on an LSR Fortessa cytometer. For HLA-I and HLA-II detection, the following antibodies were used: HLA-ABC (W6/32 clone) conjugated to PE (BioLegend #311406), APC (BioLegend #311410), or AF647 (Santa Cruz Biotechnology #sc32235 AF647), and HLA-DR-FITC (BioLegend #307604)."}}, "data": [{"substance": "IFN-y: type II interferon, recombinant human, used to treat MCC cells", "values": [{"measurement": "number of detected peptides presented on HLA Class I", "setting": "[1]; tumor derived cell lines, FIG. 3B", "result": "increased"}]}, {"substance": "IFN-γ: interferon gamma used to stimulate MCC cell lines", "values": [{"measurement": "abundance of class I bound peptides, median fold increase", "setting": "[1]; across 4 cell lines, after IFN-γ stimulation vs baseline", "result": 25, "unit": "fold"}, {"measurement": "frequencies of peptides mapping to each HLA allele", "setting": "[1]; cell lines exposed or not to IFN-γ", "result": "increase in HLA-B-presented peptides"}, {"measurement": "fold increase in MFI of HLA-I after IFN-γ exposure", "setting": "surface HLA-I; 8 lines", "result": "≥ 2.5", "unit": "fold"}, {"measurement": "median fold increase in MFI of HLA-I after IFN-γ exposure", "setting": "surface HLA-I; 8 lines", "result": 5.7, "unit": "fold"}, {"measurement": "range of fold increase in MFI of HLA-I after IFN-γ exposure", "setting": "surface HLA-I; 8 lines", "result": "2.5-12.4 fold"}, {"measurement": "fold increase in MFI of HLA-I after IFN-γ exposure", "setting": "surface HLA-I; three lines (MCC-336, -350, -358)", "result": "≤ 1.15", "unit": "fold"}]}]}
